± gives the expanded uncertainty stated by the source.
Assay: activity coefficient (dimensionless); of the first substance listed, at infinite dilution; xn = mol fraction of the nth substance listed
Details: Liquid, Chromatography, x1 = 0

Structure (SMILES)	activity coefficient (322.85 K)	activity coefficient (332.65 K)	activity coefficient (343.15 K)
C1CCCCCC1 [cycloheptane] + CCCC[N+](C)(CCCC)CCCC.O=S(=O)([N-]S(=O)(=O)C(F)(F)F)C(F)(F)F	12.4 ± 0.57	17.7 ± 0.82	23.9 ± 1.1
C1CCCCC1 [cyclohexane] + CCCCCCCCCC[N+](C)(C)C.O=S(=O)([N-]S(=O)(=O)C(F)(F)F)C(F)(F)F	2.9 ± 0.13	2.96 ± 0.13	2.8 ± 0.13
C1CCCCC1 [cyclohexane] + CCCCCCCC[N+](C)(C)C.O=S(=O)([N-]S(=O)(=O)C(F)(F)F)C(F)(F)F	4.08 ± 0.19	3.84 ± 0.17	3.57 ± 0.16
C1CCCCC1 [cyclohexane] + CCCCCCCC[N+](CCCCCCCC)(CCCCCCCC)CCCCCCCC.O=S(=O)([N-]S(=O)(=O)C(F)(F)F)C(F)(F)F	0.95 ± 0.03	0.94 ± 0.03	0.92 ± 0.03
C1CCCCC1 [cyclohexane] + CCCC[N+](C)(CCCC)CCCC.O=S(=O)([N-]S(=O)(=O)C(F)(F)F)C(F)(F)F	4.74 ± 0.22	4.71 ± 0.21	4.44 ± 0.2
CCCCCCCCCC [decane] + CCCCCCCCCC[N+](C)(C)C.O=S(=O)([N-]S(=O)(=O)C(F)(F)F)C(F)(F)F	10.1 ± 0.46	9.82 ± 0.45	9.32 ± 0.43
CCCCCCCCCC [decane] + CCCCCCCC[N+](C)(C)C.O=S(=O)([N-]S(=O)(=O)C(F)(F)F)C(F)(F)F	19.3 ± 0.89	17.9 ± 0.83	16.2 ± 0.75
CCCCCCCCCC [decane] + CCCCCCCC[N+](CCCCCCCC)(CCCCCCCC)CCCCCCCC.O=S(=O)([N-]S(=O)(=O)C(F)(F)F)C(F)(F)F	2.3 ± 0.1	2.32 ± 0.11	2.21 ± 0.1
CCCCCCCCCC [decane] + CCCC[N+](C)(CCCC)CCCC.O=S(=O)([N-]S(=O)(=O)C(F)(F)F)C(F)(F)F	19.6 ± 0.91	19.2 ± 0.89	17.8 ± 0.82
ClCCl [dichloromethane] + CCCCCCCCCC[N+](C)(C)C.O=S(=O)([N-]S(=O)(=O)C(F)(F)F)C(F)(F)F	0.51 ± 0.03	0.55 ± 0.03	0.56 ± 0.03
ClCCl [dichloromethane] + CCCCCCCC[N+](C)(C)C.O=S(=O)([N-]S(=O)(=O)C(F)(F)F)C(F)(F)F	0.51 ± 0.03	0.53 ± 0.03	0.54 ± 0.03
ClCCl [dichloromethane] + CCCCCCCC[N+](CCCCCCCC)(CCCCCCCC)CCCCCCCC.O=S(=O)([N-]S(=O)(=O)C(F)(F)F)C(F)(F)F	0.29 ± 0.04	0.3 ± 0.04	0.31 ± 0.04
ClCCl [dichloromethane] + CCCC[N+](C)(CCCC)CCCC.O=S(=O)([N-]S(=O)(=O)C(F)(F)F)C(F)(F)F	0.66 ± 0.03	0.69 ± 0.03	0.7 ± 0.03
CCOCC [diethyl ether] + CCCCCCCCCC[N+](C)(C)C.O=S(=O)([N-]S(=O)(=O)C(F)(F)F)C(F)(F)F	1.23 ± 0.04	1.24 ± 0.04	1.21 ± 0.04
CCOCC [diethyl ether] + CCCCCCCC[N+](C)(C)C.O=S(=O)([N-]S(=O)(=O)C(F)(F)F)C(F)(F)F	1.6 ± 0.06	1.57 ± 0.06	1.53 ± 0.06
CCOCC [diethyl ether] + CCCCCCCC[N+](CCCCCCCC)(CCCCCCCC)CCCCCCCC.O=S(=O)([N-]S(=O)(=O)C(F)(F)F)C(F)(F)F	0.71 ± 0.03	0.71 ± 0.03	0.71 ± 0.03
CCOCC [diethyl ether] + CCCC[N+](C)(CCCC)CCCC.O=S(=O)([N-]S(=O)(=O)C(F)(F)F)C(F)(F)F	1.65 ± 0.07	1.67 ± 0.07	1.65 ± 0.07
CC(C)OC(C)C [diisopropyl ether] + CCCCCCCCCC[N+](C)(C)C.O=S(=O)([N-]S(=O)(=O)C(F)(F)F)C(F)(F)F	2.19 ± 0.1	2.32 ± 0.11	2.3 ± 0.1
CC(C)OC(C)C [diisopropyl ether] + CCCCCCCC[N+](C)(C)C.O=S(=O)([N-]S(=O)(=O)C(F)(F)F)C(F)(F)F	3.22 ± 0.15	3.15 ± 0.14	3.08 ± 0.14
CC(C)OC(C)C [diisopropyl ether] + CCCCCCCC[N+](CCCCCCCC)(CCCCCCCC)CCCCCCCC.O=S(=O)([N-]S(=O)(=O)C(F)(F)F)C(F)(F)F	1.08 ± 0.03	1.08 ± 0.03	1.08 ± 0.03
CC(C)OC(C)C [diisopropyl ether] + CCCC[N+](C)(CCCC)CCCC.O=S(=O)([N-]S(=O)(=O)C(F)(F)F)C(F)(F)F	3.31 ± 0.15	3.35 ± 0.15	3.35 ± 0.15
CCCCCCCCCCCC [dodecane] + CCCCCCCCCC[N+](C)(C)C.O=S(=O)([N-]S(=O)(=O)C(F)(F)F)C(F)(F)F	15.1 ± 0.7	14.8 ± 0.68	13.8 ± 0.63
